Test results as given in patent US20060165642A1, “Hair treatment compositions” (priority 2002, published 2006).

Experiment: cuticle abrasion test
Conditions: for performance in cuticle abrasion test versus comparative Examples: base shampoo containing 0.03M of the compound; for % recovery: freeze-dried cuticle abraded from 4 g hair washed twice with base shampoo containing 0.03M of the compound, lower is better
Protocol: The compositions were tested in a cuticle abrasion test. Root end hair (as received from the supplier) was pre-cleaned by washing for 1 minute in Composition I followed by copious rinsing in double deionised water. The hair was left to dry naturally over 24 hrs.
For each test, 4 g of hair was washed in 0.4 g of the test composition for 30 seconds, rinsed for 30 seconds, and the washing/rinsing cycle repeated. The hair was left to dry naturally overnight.
The hair was cut into 1 cm lengths, placed in a blender bucket and 200 ml of double de-ionised water was added. The blender was placed on full power for 1 minute. The liquor was decanted off and transferred to a 50 ml centrifuge tube and centrifuged for 10 minutes at 4,300 RPM. The resulting clear liquor was decanted off leaving the cuticle sediment at the bottom of the tube.
The cuticle was transferred from the tube into a beaker with 3×5 ml washes and passed through a series of sieves (425 and 53 microns). The sieves were washed with a further 2×10 ml of water to ensure complete recovery of the cuticle. The sample was made up to 50 ml in a centrifuge tube, centrifuged for 15 minutes and the liquor decanted off. The cuticle was transferred with double deionised water (2×10 ml washes) to a beaker and freeze-dried.
The freeze-dried cuticle was weighed back to determine percentage recovery.

## CC(C)(C)CCO [Compound 1, 3,3-dimethylbutan-1-ol]
  performance in cuticle abrasion test versus comparative Examples: perform better than comparative Examples A and B
  % recovery: 0.31%

## CC(C)(C)C(O)CO (centres unmarked) [Compound 2, 3,3-dimethyl-1,2-butanediol]
  performance in cuticle abrasion test versus comparative Examples: perform better than comparative Examples A and B
  % recovery: 0.27%

## CC(O)CC(C)(C)O (centres unmarked) [Compound B, 2-methyl-2,4 pentanediol, reference compound]
  % recovery: 0.50%
